Results on 28 molecules are retold here after article PMC6736568, “Discovery of Novel Anti-cryptosporidial Activities From Natural Products by in vitro High-Throughput Phenotypic Screening” (Frontiers in Microbiology, 2019).

Data set [1] deals with Cryptosporidium parvum. Briefly: qRT-PCR assay of the growth of C. parvum in vitro in HCT-8 host cells (primary and secondary screening, EC50). It counts as cell-based.
In data set [2] the test system is HCT-8 host cells (Hs18S).
Setting [3] is: primary screening at 10 uM, from Hs18S ΔCT.
Setting [4] is: primary screening at 10 uM, treated vs control.

Like-named read-outs stand apart in the source and are kept apart here.

For the molecule `Br.CN1[C@H]2C[C@H](OC(=O)[C@H](CO)c3ccccc3)C[C@@H]1[C@@H](O)C2` [ANISODAMINE HYDROBROMIDE], the “Inhibition (%)” value in data set [1] (primary screening at 10 uM) was 5.51%. Moreover, in data set [2] (setting [3]), the “Cytotoxicity (%)” value is -32.6%. Moreover, the “Hs18S ΔCT” value in data set [2] (setting [4]) is given as -0.41.

On to `C=CCSC[C@H](N)C(=O)O` [L-DEOXYALLIIN], for which the “Inhibition (%)” value in data set [1] (primary screening at 10 uM) is given as 38.80%. The “Cytotoxicity (%)” value in data set [2] (setting [3]) is listed as -21.9%. In addition, in data set [2] (setting [4]), the “Hs18S ΔCT” value was -0.29.

In the case of `CC(=O)O[C@H]1C[C@@H](OC(C)=O)C(C)(C)C2CC(=O)[C@]3(C)C(CC[C@@]4(C)[C@H](c5ccoc5)OC(=O)[C@H]5O[C@]543)[C@]21C` (stereo partly shown) [7-DEACETOXY-7-OXOKHIVORIN], the “Inhibition (%)” value in data set [1] (primary screening at 10 uM) stood at 40.16%. Besides, in data set [2] (setting [3]), the “Cytotoxicity (%)” value is on record as 13.5%. In addition, the “Hs18S ΔCT” value in data set [2] (setting [4]) is given as 0.21.

Consider `C[C@H](CC(=O)[C@@H]1OC1(C)C)[C@H]1C(=O)C[C@@]2(C)C3=CC[C@H]4C(C)(C)[C@@H](O[C@@H]5OC[C@@H](O)[C@H](O)[C@H]5O)CC[C@@]45C[C@@]35[C@@H](O)C[C@]12C` [CIMICIFUGOSIDE H1], for which, in data set [1] (primary screening at 10 uM), the “Inhibition (%)” value was determined as 58.34%. Moreover, the “Cytotoxicity (%)” value in data set [2] (setting [3]) is 69.4%. Also, the “Hs18S ΔCT” value in data set [2] (setting [4]) is 1.71.

On to `C=CCCCCCCCCCCCc1ccco1` [AVOCADENOFURAN], for which the “Inhibition (%)” value in data set [1] (primary screening at 10 uM) is recorded as -21.47%. Also, the “Cytotoxicity (%)” value in data set [2] (setting [3]) is -32.5%. The “Hs18S ΔCT” value in data set [2] (setting [4]) is recorded as -0.41.

Turning to `Cc1occc(=O)c1O` [LARIXINIC ACID], the “Inhibition (%)” value in data set [1] (primary screening at 10 uM) came out at 59.78%. In addition, the “Cytotoxicity (%)” value in data set [2] (setting [3]) was determined as 12.9%. Besides, the “Hs18S ΔCT” value in data set [2] (setting [4]) is listed as 0.20.

Consider `COC(=O)C1=CO[C@@H](C)[C@H]2CN3CC[C@]4(C(=O)Nc5ccccc54)[C@@H]3C[C@H]12` [MITRAPHYLLINE], for which the “Inhibition (%)” value in data set [1] (primary screening at 10 uM) amounted to 41.31%. In addition, the “Cytotoxicity (%)” value in data set [2] (setting [3]) is given as 11.1%. In addition, the “Hs18S ΔCT” value in data set [2] (setting [4]) was determined as 0.17.

As to `COc1ccc(/C=C/C(=O)c2cc(O)ccc2O)cc1` [2',5'-DIHYDROXY-4-METHOXYCHALCONE], the “Inhibition (%)” value in data set [1] (10 µM) is -23.93. Further, in data set [2], the “Hs18S ΔCT” value is on record as -0.46. Besides, the “Cytotoxicity (%)” value in data set [2] (10 µM) was -37.7.

Turning to `C[N+](C)(C)CC(O)CC(=O)O.[Cl-]` (stereo not drawn) [CARNITINE (dl) HYDROCHLORIDE], the “Inhibition (%)” value in data set [1] (primary screening at 10 uM) is given as -3.41%. The “Cytotoxicity (%)” value in data set [2] (setting [3]) is given as -73.4%. The “Hs18S ΔCT” value in data set [2] (setting [4]) was -0.79.

On to `CC(=O)O.Cc1cc2c(C(C)C)c(O)c(O)c(C=O)c2c(O)c1-c1c(C)cc2c(C(C)C)c(O)c(O)c(C=O)c2c1O` [GOSSYPOL-ACETIC ACID COMPLEX], for which the “Inhibition (%)” value in data set [1] (primary screening at 10 uM) is -21.55%. Also, in data set [2] (setting [3]), the “Cytotoxicity (%)” value is given as -7.1%. Also, the “Hs18S ΔCT” value in data set [2] (setting [4]) is recorded as -0.10.

With `C[C@H]1CC[C@@H](C(C)(C)O)CC2=C1CC[C@@H]2C` [GUAIOL(-)], the “Inhibition (%)” value in data set [1] (10 µM) was -22.71. In data set [2], the “Hs18S ΔCT” value is given as 0.20. In data set [2] (10 µM), the “Cytotoxicity (%)” value turned out to be 12.7.

For the molecule `COc1c(-c2ccccc2)oc2cc(O)cc(O)c2c1=O` [GALANGIN 3-O-METHYL ETHER], in data set [1] (primary screening at 10 uM), the “Inhibition (%)” value is recorded as -5.04%. In addition, in data set [2] (10 µM), the “Cytotoxicity (%)” value was -45.3%.

With `CC1(C)[C@@H](O[C@H]2O[C@H](C(=O)O)[C@@H](O)[C@H](O)[C@H]2O[C@@H]2O[C@H](C(=O)O)[C@@H](O)[C@H](O)[C@H]2O)CC[C@]2(C)[C@H]3C(=O)C=C4[C@@H]5C[C@@](C)(C(=O)O)CC[C@]5(C)CC[C@@]4(C)[C@]3(C)CC[C@@H]12.N` [GLYCYRRHIZIC ACID, AMMONIUM SALT], the “Inhibition (%)” value in data set [1] (primary screening at 10 uM) was 1.41%. The “Cytotoxicity (%)” value in data set [2] (setting [3]) is -43.6%. Besides, the “Hs18S ΔCT” value in data set [2] (setting [4]) is listed as -0.52.

On to `CC[C@H](C=C[C@@H](C)[C@H]1CC[C@H]2[C@@H]3CCC4=CC(=O)CC[C@]4(C)[C@H]3CC[C@]12C)C(C)C`, for which the “% Inhibition (3.3 uM)” value in data set [1] is on record as -6. Further, the “Inhibition (%)” value in data set [1] (10 µM) is 64.69. Further, the “Hs18S ΔCT” value in data set [2] is reported as 0.46. In data set [2] (10 µM), the “Cytotoxicity (%)” value amounted to 27.4.

`COc1ccc2c(c1OC)C(=O)O[C@@H]2[C@H]1c2cc3c(cc2CCN1C)OCO3` [HYDRASTINE (1R, 9S)]: in data set [1] (primary screening at 10 uM), the “Inhibition (%)” value is -23.62%. The “Hs18S ΔCT” value in data set [2] (setting [4]) is reported as -0.18.

For the molecule `C=CC[S+]([O-])C[C@H](N)C(=O)O` (mixture of isomers) [L(+/-)-ALLIIN], the “Inhibition (%)” value in data set [1] (primary screening at 10 uM) was determined as 21.98%. Besides, the “Cytotoxicity (%)” value in data set [2] (setting [3]) was -12.5%. For the same molecule, in data set [2] (setting [4]), the “Hs18S ΔCT” value is -0.17.

For `CC(=O)O[C@H]1CC[C@@]2(C)C(=CC[C@H]3[C@@H]4CC[C@H]([C@H](C)CCCC(C)C)[C@@]4(C)CC[C@@H]32)C1` [CHOLESTERYL ACETATE], the “Inhibition (%)” value in data set [1] (primary screening at 10 uM) is reported as -22.86%. In data set [2] (setting [3]), the “Cytotoxicity (%)” value is listed as -5.8%. Further, the “Hs18S ΔCT” value in data set [2] (setting [4]) is -0.08.

Take `C[C@]12CCC(=O)C[C@@H]1CC[C@@H]1[C@@H]2CC[C@]2(C)C(=O)CC[C@@H]12` [5alpha-ANDROSTAN-3,17-DIONE]: the “Inhibition (%)” value in data set [1] (primary screening at 10 uM) is given as -13.88%. In addition, the “Cytotoxicity (%)” value in data set [2] (setting [3]) is reported as -0.1%. Further, the “Hs18S ΔCT” value in data set [2] (setting [4]) worked out at 0.00.

Take `O=c1cc(-c2ccccc2O)oc2cc(O)ccc12` [7,2'-DIHYDROXYFLAVONE]: the “Inhibition (%)” value in data set [1] (primary screening at 10 uM) is reported as -16.96%. In addition, the “Cytotoxicity (%)” value in data set [2] (setting [3]) turned out to be 12.6%. For the same molecule, in data set [2] (setting [4]), the “Hs18S ΔCT” value was 0.19.

As for `O=C(O)CCCCCCCC(O)C(O)CCCCCCO` (stereo not shown) [ALEURETIC ACID], the “Inhibition (%)” value in data set [1] (primary screening at 10 uM) is on record as 36.82%. Moreover, the “Hs18S ΔCT” value in data set [2] is 0.24. For the same molecule, the “Cytotoxicity (%)” value in data set [2] (10 µM) is on record as 15.2.

`CN[C@@H]1[C@H](O)[C@H](NC)[C@H]2O[C@@]3(O)C(=O)C[C@@H](C)O[C@H]3O[C@@H]2[C@H]1O.Cl` [SPECTINOMYCIN HYDROCHLORIDE]: in data set [1] (primary screening at 10 uM), the “Inhibition (%)” value is recorded as -6.16%. Moreover, the “Cytotoxicity (%)” value in data set [2] (setting [3]) was -42.8%. The “Hs18S ΔCT” value in data set [2] (setting [4]) is listed as -0.51.

`CC(=O)c1c(O)cc(O)cc1O` [PHLORACETOPHENONE]: the “Inhibition (%)” value in data set [1] (primary screening at 10 uM) is recorded as -25.30%. Besides, in data set [2] (setting [3]), the “Cytotoxicity (%)” value is on record as 26.5%. Besides, in data set [2] (setting [4]), the “Hs18S ΔCT” value worked out at 0.44.

For `C=C[C@@]1(C)CC(=O)[C@@]2(O)[C@](C)(O1)[C@@H](O)[C@@H](O)C1C(C)(C)CC[C@H](O)[C@@]12C` (stereo partly shown) [DESACETYLCOLFORSIN], the “Inhibition (%)” value in data set [1] (primary screening at 10 uM) is given as -6.53%. For the same molecule, the “Cytotoxicity (%)” value in data set [2] (setting [3]) is 14.3%. In addition, in data set [2] (setting [4]), the “Hs18S ΔCT” value is recorded as 0.22.

`O.OC[C@H]1O[C@@H](O[C@H]2[C@H](O)[C@@H](O)[C@@H](O)O[C@@H]2CO)[C@H](O)[C@@H](O)[C@H]1O` [LACTOSE MONOHYDRATE]: the “Inhibition (%)” value in data set [1] (primary screening at 10 uM) is 31.71%. Besides, the “Hs18S ΔCT” value in data set [2] (setting [4]) turned out to be 0.02.

Regarding `O=C(O)c1cc(O)c(=O)c2c(O)c(O)c(O)cc2c1` [PURPUROGALLIN-4-CARBOXYLIC ACID], in data set [1] (primary screening at 10 uM), the “Inhibition (%)” value worked out at 2.20%. The “Cytotoxicity (%)” value in data set [2] (setting [3]) was found to be 7.3%. In addition, in data set [2] (setting [4]), the “Hs18S ΔCT” value is 0.11.

With `CC1(C)C2CC(=O)[C@]3(C)C(CC[C@@]4(C)[C@H](c5ccoc5)OC(=O)[C@H]5O[C@]543)[C@@]2(C)C(=O)C[C@H]1O` (stereo partly shown) [1,7-DIDEACETOXY-1,7-DIOXO-3-DEACETYLKHIVORIN], in data set [1] (primary screening at 10 uM), the “Inhibition (%)” value is 26.84%. In data set [2] (setting [3]), the “Cytotoxicity (%)” value is listed as -6.9%. In addition, in data set [2] (setting [4]), the “Hs18S ΔCT” value is recorded as -0.10.

`C=C[C@@](C)(O)CC[C@H]1C(=C)C[C@H](O)[C@H]2C(C)(C)CCC[C@]12C` [LARIXOL]: the “Inhibition (%)” value in data set [1] (primary screening at 10 uM) stood at 31.41%. Also, the “Cytotoxicity (%)” value in data set [2] (setting [3]) is 2.2%. Further, in data set [2] (setting [4]), the “Hs18S ΔCT” value is 0.03.

On to `O=C(O)[C@H](O)[C@@H](O)[C@H](O[C@@H]1O[C@H](CO)[C@H](O)[C@H](O)[C@H]1O)[C@H](O)CO` [LACTOBIONIC ACID], for which, in data set [1] (primary screening at 10 uM), the “Inhibition (%)” value was -17.48%. Besides, the “Cytotoxicity (%)” value in data set [2] (setting [3]) is given as -27.5%. Besides, the “Hs18S ΔCT” value in data set [2] (setting [4]) was -0.35.
